Experiments:
[1] = test system: C3 complement component in RAW 264.7 macrophages; test: LPS-induced C3 complement component production ELISA in RAW 264.7 macrophages; assay type: cell-based, mouse; settings: 1, 10, 20 and 50 μg/ml; LPS 100 ng ml^−1 24 h
Protocol: The effect of Brevisan, Microsan and M-EPS-Au-NP on C3 complement component was measured using ELISA kits (Antibodies, Atlanta, USA). RAW 264.7 cells were treated with Brevisan, Microsan and M-EPS-Au-NP at 1, 10, 20 and 50 μg/ml, respectively, and then stimulated with 100 ng ml^−1 of LPS. After incubating for 24 h, 50 μl of supernatant was collected and added to each well in an antibody coated 96-well plate. After I h, the wells were washed with PBS and incubated with 100 μl of horse radish peroxidase (HRP)-conjugate for 1 h at 37° C. and then incubated with 50 μl of O-phenylenediamine (0.2% w/v in 0.017 M citrate phosphate buffer, pH 6) and 50 μl of 0.015% hydrogen peroxide for 15 min and the reaction was stopped by adding 50 μl of 12.5% sulphuric acid and the optical density was measured at 450 nm using Biotek EIA Reader (Biotek Instruments, Inc., VT, USA). The results shown are the average of three independent experiments. Further, the hemolytic activity of the secreted C3 was measured as described earlier [Gasque, P., Julen, N., Ischenko, A. M., Picot, C., Mauger, C., Chauzy, C., Ripoche, J. and Fontaine, M. (1992) J. Immunol. 149, 1381-1389]. […] Then 1.5 ml of PBS was added, centrifuged at 10,000 rpm for 5 min and the hemoglobin released present in the supernatant was quantified by measuring the absorbance at 415 nm. […]

erythrocytes = test: Erythrocyte hemolysis assay (H2O2); assay type: cell-based; settings: human erythrocytes, H2O2, 37° C., 30 min
Protocol: (§1) The antioxidant activity of Microsan from Microbacterium sp. strain BS-2 and Brevisan from Brevibacillus sp. strain BS-207 in cell free system was measured by its inhibitory activity on the generation of DPPH free radicals, superoxide anions (O^2−), lipid peroxidation and erythrocyte hemolysis. The DPPH free radical scavenging assay was performed using 2,2-diphenyl-1-picrylhydrazyl (DPPH) free radical scavenging method [Ara. N. and Hasan, N. (2009) Res. J. Med. Medical Sci. 4, 107-110]. Different concentrations of Microsan and Brevisan were mixed individually with 150 μl of 160 μM methanolic solution of DPPH and incubated at 35° C. for 30 min in dark. The effective concentration (EC50) was calculated by measuring the absorbance of the samples at 517 nm. The superoxide anion scavenging was measured using phenazine methosulfate-nicotinamide adenine dinucleotide (PMS/NADH) method as previously described [Liu, F., Ooi, V. E. and Chang, S. T. (1997) Life Sci. 60, 763-771]. The lipid peroxidation assay was performed using the previously described method [Zhang, Q., Yu, P., Li, Z., Zhang, H., Xu, Z. and Li, P. (2003) J. Appl. Phycol. 15, 305-310] which is based on measuring the lipid peroxide decomposed product malondialdehyde (MDA). […] Samples were incubated at 37° C. for 30 min and the absorbance was measured at 540 nm. […]

[2] = DPPH free radical scavenging assay (cell free); assay type: biochemical; settings: 35° C., 30 min
Protocol: as §1

TNF-α in RAW 264.7 cells = test: LPS-induced TNF-α ELISA in RAW 264.7 cells; assay type: cell-based, mouse; settings: 50 μg ml^−1; LPS 100 ng ml^−1 24 h; LPS alone 215.79
Protocol: The effect of Brevisan, Microsan and M-EPS-Au-NP on the release of proinflammatory cytokines, TNF-α and IL-6, was measured using ELISA kits (Biosource International, Camarillo, Calif., USA). In independent experiments, the RAW-264.7 cells were treated with different concentrations (1, 10, 50 and 100 μg ml^−1) of Brevisan, Microsan and M-EPS-Au-NP and then stimulated with 100 ng ml^−1 of LPS. The supernatants were harvested after 24 h and the concentrations of TNF-α and IL-6 was measured using an ELISA kit according to the manufacturer's instructions.

RAW 264.7 macrophages = test: In vitro MTT assay, proliferation of RAW 264.7 macrophages; assay type: cell-based, mouse; settings: 200 μg ml-1, 48 h
Protocol: The effect of Brevisan, Microsan and M-EPS-Au-NP on the proliferation of RAW 264.7 macrophages (ATCC No. CRL-2278) was measured by in vitro MTT assay using the previously described method [Mosmann, T. (1983) J. Immunol. Methods 65, 55-63], which is based on the cell-mediated reduction of tetrazolium salt to form water insoluble formazan crystals. The MTT assay was performed with different concentrations (1-200 μg ml-1) of Brevisan, Microsan and M-EPS-Au-NP were incubated for 48 h using laminarin as a control.

[3] = Lipid peroxidation assay (malondialdehyde); assay type: biochemical; settings: cell free
Protocol: as §1

[4] = test system: cyclooxygenase-2 (COX-2) in RAW 264.7 cells; test: LPS-induced COX-2 immunoblot in RAW 264.7 cells; assay type: cell-based, mouse; settings: 10 and 50 μg ml^−1, 24 h, LPS 100 ng ml^−1
Protocol: In independent experiments, RAW-264.7 cells were treated with Brevisan, Microsan and M-EPS-Au-NP (10 and 50 μg ml^−1 each) and then stimulated with 100 ng ml^−1 of LPS. After 24 h, the cells were washed with PBS and suspended in a lysis buffer containing 20 mM Tris, I mM EDTA, 150 mM NaCl, 1% NP-40, 0.5% sodium deoxycholate, 1 mM β-glycerophosphate, 1 mM sodium orthovanadate, 1 mM PMSF, 10 mg ml^−1 leupeptin, 20 mg ml^−1 aprotinin. The mixture was centrifuged at 10,000 rpm at 4° C. for 10 min to obtain the cell lysate. The protein content was determined by Bradford method [Bradford, M. M. (1976) Anal. Biochem. 72, 248-258]. An equal amount of total cell lysate was resolved on 12% SDS-PAGE gels and then transferred onto nitrocellulose membranes. Membranes were blocked with 5% w/v non-fat dry milk and then incubated with the primary antibodies for mouse COX-2 and β-actin with gentle shaking at 4° C. for 12 h and then incubated with peroxidase-conjugated secondary antibodies. The blots were developed using peroxidase substrates, TMB (3,3,5,5-tetramethylbenzidine)/H2O2.

[5] = Superoxide anion scavenging (PMS/NADH method); assay type: biochemical; settings: cell free
Protocol: as §1

Substance: β-D-glucuronyl-(1-2)-D-mannosyl-(1-4)-D-glucose [Microsan]
- inhibition of C3 complement component production [1]: did not inhibit
- EC50 erythrocyte hemolysis inhibition (erythrocytes): 139.28 µg/mL
- EC50 DPPH free radical scavenging [2]: 40.78 µg/mL
- TNF-α production after treatment (TNF-α in RAW 264.7 cells): 98.88 µg/mL
- cell proliferation (MTT) (RAW 264.7 macrophages): 89.07%
- EC50 lipid peroxidation inhibition [3]: 165.94 µg/mL
- induction of COX-2 (Western blot) [4]: significantly inhibited
- EC50 superoxide anions (O^2−) scavenging [5]: 24.48 µg/mL

Reference: patent US10106627B2, “Process for the preparation of polymeric biosurfactants” (priority 2014, dated 2018)
